# pKi: −log10 of the molar value.
# Target: T1, glucocorticoid receptor (Homo sapiens, UniProt P04150)
# T1 construct: endogenous in cells; ATCC cat
# T1 sequence (P04150 1-777): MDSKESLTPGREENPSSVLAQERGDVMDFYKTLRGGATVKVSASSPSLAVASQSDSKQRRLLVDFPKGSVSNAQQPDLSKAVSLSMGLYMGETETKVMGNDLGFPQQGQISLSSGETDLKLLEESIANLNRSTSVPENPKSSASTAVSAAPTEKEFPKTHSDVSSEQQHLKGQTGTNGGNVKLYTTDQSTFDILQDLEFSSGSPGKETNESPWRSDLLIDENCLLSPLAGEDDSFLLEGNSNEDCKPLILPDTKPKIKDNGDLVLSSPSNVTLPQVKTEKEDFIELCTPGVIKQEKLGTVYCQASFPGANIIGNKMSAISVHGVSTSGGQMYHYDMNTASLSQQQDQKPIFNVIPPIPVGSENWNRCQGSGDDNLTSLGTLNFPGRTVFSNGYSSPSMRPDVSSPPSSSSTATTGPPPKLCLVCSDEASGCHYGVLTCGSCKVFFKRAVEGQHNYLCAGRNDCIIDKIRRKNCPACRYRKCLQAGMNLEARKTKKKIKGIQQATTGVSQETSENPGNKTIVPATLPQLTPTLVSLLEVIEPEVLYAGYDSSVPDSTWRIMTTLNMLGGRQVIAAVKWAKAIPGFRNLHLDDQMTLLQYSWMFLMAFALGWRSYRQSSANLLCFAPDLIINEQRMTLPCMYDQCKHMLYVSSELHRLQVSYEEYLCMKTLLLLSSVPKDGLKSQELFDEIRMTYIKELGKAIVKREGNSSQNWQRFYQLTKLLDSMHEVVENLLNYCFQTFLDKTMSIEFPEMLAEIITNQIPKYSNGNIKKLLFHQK
# Assay: Hep G2 TAT Ki: inhibition of dexamethasone-induced TAT in HepG2 cells (96 well)
# Format: cell-based
# Conditions: challenge of 100 nM dexamethasone, IC50 converted to Ki by Cheng and Prusoff equation
# Method: Glucocorticoid mediated activation of TAT occurs by transactivation of glucocorticoid response elements in the TAT promoter by glucocorticoid receptor-agonist complex.
# HepG2 cells were cultured using MEME media supplemented with 10% (v/v) foetal bovine serum; 2 mM L-glutamine and 1% (v/v) NEAA at 37° C., 5%/95% (v/v) CO2/air.
# Compounds were serially half log diluted in 100% (v/v) dimethylsulphoxide from a 10 mM stock.
# HepG2 cells were then lysed with 30 μl of cell lysis buffer containing a protease inhibitor cocktail for 15 minutes at 4° C. […] After 2 hours incubation at 37° C. the reaction was terminated by the addition of 15 μl of 10M aqueous potassium hydroxide solution, and the plates incubated for a further 30 minutes at 37° C.
# [compound] and fitting the data to a 4 parameter logistic equation.
row,SMILES,pKi
1,"Cc1ncc(S(=O)(=O)N2CCN(CC(C)C)C(c3cc4cnn(-c5ccc(F)cc5)c4cc3C)C2)s1 (single isomer, unassigned) [Example 31, 5-((3-(1-(4-fluorophenyl)-6-methyl-1H-indazol-5-yl)-4-isobutylpiperazin-1-yl)sulfonyl)-2-methylthiazole]",7.96
2,"Cc1cc2c(cnn2-c2ccc(F)cc2)cc1C1CN(S(=O)(=O)c2cnn(C3CCOCC3)c2)CCN1CC(C)C (single isomer, unassigned) [Example 54, 1-(4-fluorophenyl)-5-(1-isobutyl-4-((1-(tetrahydro-2H-pyran-4-yl)-1H-pyrazol-4-yl)sulfonyl)piperazin-2-yl)-6-methyl-1H-indazole]",7.51
3,"Cc1cc2c(cnn2-c2ccc(F)cc2)cc1C1CN(S(=O)(=O)c2cccnc2)CCN1CC(C)C(F)(F)F (single isomer, unassigned) [Example 145, 1-(4-fluorophenyl)-6-methyl-5-(4-(pyridin-3-ylsulfonyl)-1-(3,3,3-trifluoro-2-methylpropyl)piperazin-2-yl)-1H-indazole]",8.07
4,"CCn1cc(S(=O)(=O)N2CCN(CC(C)C)C(c3cc4cnn(-c5ccc(F)cc5)c4cc3C)C2)cn1 (single isomer, unassigned) [Example 55, 5-(4-((1-ethyl-1H-pyrazol-4-yl)sulfonyl)-1-isobutylpiperazin-2-yl)-1-(4-fluorophenyl)-6-methyl-1H-indazole]",7.72
5,"CCn1ncc(S(=O)(=O)N2CCN(CC(C)C)C(c3cc4cnn(-c5ccc(F)cc5)c4cc3C)C2)n1 (stereo not drawn) [Example 40, 5-(4-((2-ethyl-2H-1,2,3-triazol-4-yl)sulfonyl)-1-isobutylpiperazin-2-yl)-1-(4-fluorophenyl)-6-methyl-1H-indazole]",7.28
6,"Cc1cc2c(cnn2-c2ccc(F)cc2)cc1C1CN(S(=O)(=O)c2ccc(C#N)nc2)CCN1CC(C)C (single isomer, unassigned) [Example 117, 5-((3-(1-(4-fluorophenyl)-6-methyl-1H-indazol-5-yl)-4-isobutylpiperazin-1-yl)sulfonyl)picolinonitrile]",7.42
7,"Cc1cc2c(cnn2-c2ccc(F)cc2)cc1C1CN(S(=O)(=O)c2cnn(C(C)C)n2)CCN1CC(C)C (stereo not drawn) [Example 37, 1-(4-fluorophenyl)-5-(1-isobutyl-4-((2-isopropyl-2H-1,2,3-triazol-4-yl)sulfonyl)piperazin-2-yl)-6-methyl-1H-indazole]",7.12
8,"Cc1cc2c(cnn2-c2ccc(F)cc2)cc1C1CN(S(=O)(=O)c2ccn(C)n2)CCN1CC(C)C (stereo not drawn) [Example 42, 1-(4-fluorophenyl)-5-(1-isobutyl-4-((1-methyl-1H-pyrazol-3-yl)sulfonyl)piperazin-2-yl)-6-methyl-1H-indazole]",7.40
9,"Cc1cc2c(cnn2-c2ccc(F)cc2)cc1C1CN(S(=O)(=O)c2cnn(CC(F)(F)F)c2)CCN1CC(C)C (single isomer, unassigned) [Example 110, 1-(4-fluorophenyl)-5-(1-isobutyl-4-((1-(2,2,2-trifluoroethyl)-1H-pyrazol-4-yl)sulfonyl)piperazin-2-yl)-6-methyl-1H-indazole]",7.57
10,"Cc1cc2c(cnn2-c2ccc(F)cc2)cc1C1CN(C(=O)c2cnn(C)n2)CCN1CC(C)C (stereo not drawn) [Example 67, (3-(1-(4-fluorophenyl)-6-methyl-1H-indazol-5-yl)-4-isobutylpiperazin-1-yl)(2-methyl-2H-1,2,3-triazol-4-yl)methanone]",6.41
11,"COc1ccc(CN2CCN(S(=O)(=O)c3cnn(C)n3)CC2c2cc3cnn(-c4ccc(F)cc4)c3cc2C)cc1 (stereo not drawn) [Example 3, 1-(4-fluorophenyl)-5-(1-(4-methoxybenzyl)-4-((2-methyl-2H-1,2,3-triazol-4-yl)sulfonyl)piperazin-2-yl)-6-methyl-1H-indazole]",7.07
12,"Cc1cc2c(cnn2-c2ccc(F)cc2)cc1C1CN(C(=O)C(C)O)CCN1CC(C)C (stereo not drawn) [Example 65, 1-(3-(1-(4-fluorophenyl)-6-methyl-1H-indazol-5-yl)-4-isobutylpiperazin-1-yl)-2-hydroxypropan-1-one]",6.43
13,"Cc1cc2c(cnn2-c2ccc(F)cc2)cc1C1CN(S(C)(=O)=O)CCN1Cc1ccccc1 (single isomer, unassigned) [Example 29, 5-(1-benzyl-4-(methylsulfonyl)piperazin-2-yl)-1-(4-fluorophenyl)-6-methyl-1H-indazole]",7.13
14,"Cc1cc2c(cnn2-c2ccc(F)cc2)cc1C1CN(S(=O)(=O)c2cncs2)CCN1CC(C)C (single isomer, unassigned) [Example 58, 5-((3-(1-(4-fluorophenyl)-6-methyl-1H-indazol-5-yl)-4-isobutylpiperazin-1-yl)sulfonyl)thiazole]",7.82
15,"COC1CC(N2CCN(S(=O)(=O)c3cnn(C)n3)CC2c2cc3cnn(-c4ccc(F)cc4)c3cc2C)C1 (single isomer, unassigned) [Example 26, 1-(4-fluorophenyl)-5-(1-(3-methoxycyclobutyl)-4-((2-methyl-2H-1,2,3-triazol-4-yl)sulfonyl)piperazin-2-yl)-6-methyl-1H-indazole]",6.74

# More lines, now with the values ahead:
row,pKi,SMILES
1,7.21,"Cc1cc2c(cnn2-c2ccc(F)cc2)cc1C1CN(S(=O)(=O)c2cnn(C)n2)CCN1CC1CC1C (stereo not drawn) [Example 14, 1-(4-fluorophenyl)-6-methyl-5-(4-((2-methyl-2H-1,2,3-triazol-4-yl)sulfonyl)-1-((2-methylcyclopropyl)methyl)piperazin-2-yl)-1H-indazole]"
2,7.09,"Cc1cc2c(cnn2-c2ccc(=O)n(C)c2)cc1C1CN(S(=O)(=O)c2cnn(C)n2)CCN1CCC(F)(F)F (stereo not drawn) [Example 165, 1-methyl-5-(6-methyl-5-(4-((2-methyl-2H-1,2,3-triazol-4-yl)sulfonyl)-1-(3,3,3-trifluoropropyl)piperazin-2-yl)-1H-indazol-1-yl)pyridin-2(1H)-one]"
3,6.77,"CC(C)CN1CCN(S(=O)(=O)c2cnn(C)n2)CC1c1cc2cnn(-c3ccc(F)cc3)c2cc1C(F)(F)F (stereo not drawn) [Example 164, 1-(4-fluorophenyl)-5-(1-isobutyl-4-((2-methyl-2H-1,2,3-triazol-4-yl)sulfonyl)piperazin-2-yl)-6-(trifluoromethyl)-1H-indazole]"
4,7.66,"Cc1cc2c(cnn2-c2ccc(F)cc2)cc1C1CN(S(=O)(=O)c2cnn(C)n2)CCN1CC1CC(F)(F)C1 (single isomer, unassigned) [Example 76, 5-(1-((3,3-difluorocyclobutyl)methyl)-4-((2-methyl-2H-1,2,3-triazol-4-yl)sulfonyl)piperazin-2-yl)-1-(4-fluorophenyl)-6-methyl-1H-indazole]"
5,6.37,"Cc1cc2c(cnn2-c2ccc(F)cc2)cc1C1CN(S(=O)(=O)c2cnn(C)n2)CCN1CC(C)C (single isomer, unassigned) [Example 10, 1-(4-fluorophenyl)-5-(1-isobutyl-4-((2-methyl-2H-1,2,3-triazol-4-yl)sulfonyl)piperazin-2-yl)-6-methyl-1H-indazole]"
6,7.24,"Cc1cc2c(cnn2-c2ccc(F)cc2)cc1C1CN(S(=O)(=O)c2cnn(C)n2)CCN1CC(C)(C)C (single isomer, unassigned) [Example 161, 1-(4-fluorophenyl)-6-methyl-5-(4-((2-methyl-2H-1,2,3-triazol-4-yl)sulfonyl)-1-neopentylpiperazin-2-yl)-1H-indazole]"
7,7.48,"Cc1cc2c(cnn2-c2ccc(F)cc2)cc1C1CN(S(=O)(=O)CC(C)C)CCN1CCC(F)(F)F (single isomer, unassigned) [Example 137, 1-(4-fluorophenyl)-5-(4-(isobutylsulfonyl)-1-(3,3,3-trifluoropropyl)piperazin-2-yl)-6-methyl-1H-indazole]"
8,7.18,"Cc1cc2c(cnn2-c2ccc(F)c(C#N)c2)cc1C1CN(S(=O)(=O)c2cnn(C)n2)CCN1CCC(F)(F)F (single isomer, unassigned) [Example 169, 2-fluoro-5-(6-methyl-5-(4-((2-methyl-2H-1,2,3-triazol-4-yl)sulfonyl)-1-(3,3,3-trifluoropropyl)piperazin-2-yl)-1H-indazol-1-yl)benzonitrile]"
9,7.49,"Cc1cc2c(cnn2-c2ccc(F)cc2)cc1C1CN(S(=O)(=O)c2cnn(C)n2)CCN1CC1CC1(F)F (single isomer, unassigned) [Example 160, 5-(1-((2,2-difluorocyclopropyl)methyl)-4-((2-methyl-2H-1,2,3-triazol-4-yl)sulfonyl)piperazin-2-yl)-1-(4-fluorophenyl)-6-methyl-1H-indazole]"

# From patent publication US12098144B2, “Piperazine indazole glucocorticoid receptor antagonists” (Corcept Therapeutics Incorporated, priority 2021, dated 2024)
